This note sets out measurements from ChEMBL document CHEMBL4265874 (Eur J Med Chem, 2017).

Series [1] is described as follows: in vitro. The note with it: dog, MDCK.
Description: (§1) Intrinsic absorptive permeability from basolateral side to apical side of dog RRCK cells
Series [2] can be described thus: in vitro. The note with it: dog, MDCK. The source holds these as a separate data set.
Description: (§2) Intrinsic absorptive permeability from apical side to basolateral side of dog RRCK cells
Series [3] in a line: in vivo. Conditions: rat, CSF / free plasma.
Description: Ratio of AUC in CSF to free plasma in rat
Series [4] is described as follows: in vivo. Conditions: rat, brain / plasma.
Description: Ratio of fAUC in brain to plasma in rat
Series [5] concerns the target Proto-oncogene tyrosine-protein kinase ROS (Homo sapiens, UniProt P08922, G2032R).
The conditions of series [6]: dog, mdckii-le.
Description: as §1
Another series in a line: physchem. The note with it: octanol/water, pH 7.4.
For series [7] the following is noted: dog, mdckii-le. This is another data set of the same source.
Description: as §2
Series [8] can be described thus: in vitro. The note with it: human, liver microsomes. Background: Liver microsomes are vesicles of endoplasmic reticulum, rich in cytochrome P450 enzymes.
Description: Intrinsic clearance in human liver microsomes

Proto-oncogene tyrosine-protein kinase ROS, sequence (P08922 28-2347 G2032R limits assumed): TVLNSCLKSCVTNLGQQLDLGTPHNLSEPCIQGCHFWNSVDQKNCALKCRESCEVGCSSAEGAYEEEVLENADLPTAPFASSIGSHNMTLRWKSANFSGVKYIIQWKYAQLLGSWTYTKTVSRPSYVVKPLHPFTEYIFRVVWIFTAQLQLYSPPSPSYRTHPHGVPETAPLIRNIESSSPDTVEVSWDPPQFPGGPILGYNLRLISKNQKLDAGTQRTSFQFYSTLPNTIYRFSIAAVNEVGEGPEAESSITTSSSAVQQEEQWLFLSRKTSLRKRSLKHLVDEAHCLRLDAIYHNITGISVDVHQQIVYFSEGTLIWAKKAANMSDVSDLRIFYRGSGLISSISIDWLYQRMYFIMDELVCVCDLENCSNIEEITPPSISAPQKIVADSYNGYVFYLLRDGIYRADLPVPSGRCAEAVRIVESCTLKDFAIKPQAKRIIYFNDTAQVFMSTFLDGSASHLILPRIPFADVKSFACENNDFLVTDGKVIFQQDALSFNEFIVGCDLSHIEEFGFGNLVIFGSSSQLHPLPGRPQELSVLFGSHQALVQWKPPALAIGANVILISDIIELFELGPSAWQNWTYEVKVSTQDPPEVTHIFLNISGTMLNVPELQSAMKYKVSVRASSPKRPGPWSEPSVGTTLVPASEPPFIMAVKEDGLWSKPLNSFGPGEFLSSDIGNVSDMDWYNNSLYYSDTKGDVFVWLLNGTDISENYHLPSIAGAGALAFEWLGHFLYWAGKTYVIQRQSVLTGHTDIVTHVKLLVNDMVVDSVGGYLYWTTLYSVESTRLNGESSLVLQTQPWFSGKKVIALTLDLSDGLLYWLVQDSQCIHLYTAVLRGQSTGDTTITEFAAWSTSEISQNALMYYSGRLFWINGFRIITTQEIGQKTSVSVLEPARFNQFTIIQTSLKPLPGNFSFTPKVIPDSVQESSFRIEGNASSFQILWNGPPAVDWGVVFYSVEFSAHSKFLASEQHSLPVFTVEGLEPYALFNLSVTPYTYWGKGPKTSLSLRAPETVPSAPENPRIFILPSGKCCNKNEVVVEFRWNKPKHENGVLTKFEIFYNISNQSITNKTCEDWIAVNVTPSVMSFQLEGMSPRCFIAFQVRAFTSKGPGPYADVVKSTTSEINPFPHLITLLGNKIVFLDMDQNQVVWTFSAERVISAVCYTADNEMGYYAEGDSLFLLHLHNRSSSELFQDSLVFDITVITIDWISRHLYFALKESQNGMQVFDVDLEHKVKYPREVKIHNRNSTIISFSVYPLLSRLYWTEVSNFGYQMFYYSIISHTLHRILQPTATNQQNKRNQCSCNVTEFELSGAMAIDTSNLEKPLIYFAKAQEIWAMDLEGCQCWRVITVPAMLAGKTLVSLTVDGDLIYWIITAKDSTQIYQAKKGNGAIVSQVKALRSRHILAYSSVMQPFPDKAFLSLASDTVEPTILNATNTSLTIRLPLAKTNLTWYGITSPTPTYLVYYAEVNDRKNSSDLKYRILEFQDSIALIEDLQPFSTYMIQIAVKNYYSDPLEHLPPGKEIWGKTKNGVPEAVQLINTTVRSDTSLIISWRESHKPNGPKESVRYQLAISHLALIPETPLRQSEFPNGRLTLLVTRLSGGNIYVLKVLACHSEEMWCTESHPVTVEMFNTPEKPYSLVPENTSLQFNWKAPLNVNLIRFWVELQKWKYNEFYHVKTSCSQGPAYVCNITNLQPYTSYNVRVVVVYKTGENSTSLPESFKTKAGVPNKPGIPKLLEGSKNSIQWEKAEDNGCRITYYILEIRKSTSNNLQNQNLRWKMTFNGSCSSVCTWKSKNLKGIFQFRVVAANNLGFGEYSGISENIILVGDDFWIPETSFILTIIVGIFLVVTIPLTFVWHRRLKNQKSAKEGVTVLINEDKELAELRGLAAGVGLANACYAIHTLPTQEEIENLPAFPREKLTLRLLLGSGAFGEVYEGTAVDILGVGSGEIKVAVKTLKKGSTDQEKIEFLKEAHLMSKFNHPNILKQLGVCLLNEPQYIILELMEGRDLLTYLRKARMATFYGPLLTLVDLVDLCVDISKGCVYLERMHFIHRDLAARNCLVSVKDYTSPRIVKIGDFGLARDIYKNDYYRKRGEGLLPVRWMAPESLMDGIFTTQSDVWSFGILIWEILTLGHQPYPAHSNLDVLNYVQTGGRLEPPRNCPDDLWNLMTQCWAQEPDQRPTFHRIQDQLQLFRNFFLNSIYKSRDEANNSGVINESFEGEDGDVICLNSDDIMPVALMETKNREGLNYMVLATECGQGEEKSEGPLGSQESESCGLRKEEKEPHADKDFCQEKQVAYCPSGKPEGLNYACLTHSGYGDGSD

In general, Papp B→A refers to the apparent permeability from the basolateral to the apical side of a cell layer. As usually defined, the Papp A→B is the apparent permeability from the apical to the basolateral side of a cell layer. Higher therefore signals fast passage. Compound `C[C@H]1Oc2cc(cnc2N)-c2c(nn(C)c2C#N)CN(C)C(=O)c2ccc(F)cc21` [LORLATINIB] yielded a Papp B→A in the series “in vitro [1]” of 280 nm/s. In the series “in vitro [2]”, this compound returned a Papp A→B of 193 nm/s. The Kp uu came out at 0.31 in “in vivo [3]” and 0.21 in “in vivo [4]”.
By Ki is commonly meant a dissociation constant, usually derived from enzyme kinetics or from competition with a known ligand. In [5], `CCc1cc2c(cc1N1CCC(N3CCOCC3)CC1)C(C)(C)c1[nH]c3cc(C#N)ccc3c1C2=O` [ALECTINIB] yielded an inhibition constant (Ki) of more than 3 µM.
For orientation: Papp means the rate of passage across a membrane or cell layer, normalised by area and donor concentration. Read a high Papp as ready permeation. The logD is lipophilicity at a set pH, counting ionised and neutral species. Lower therefore signals lower lipophilicity. The CLint scaled is the rate of metabolic loss divided by the concentration. The low end stands for greater metabolic stability, the high end for faster metabolism. On to `Cc1[nH][n+](C)c2c1-c1cnc(N)c(c1)O[C@H](C)c1cc(F)ccc1C(=O)N(C)C2`, for which the Papp in [6] was 283 nm/s; in [7] it was 81 nm/s. This compound also showed a log distribution coefficient (logD) in the series “physchem” of 2.2. In the series “in vitro [8]”, this compound registered a CLint scaled of 0.516 L/h/kg.
